# Results reported in the NIST ThermoML archive (doi:10.1021/je700486g).
# ± gives the expanded uncertainty stated by the source.
# Conditions: Crystal; visual observation
row,SMILES,Normal melting temperature
1,CC(=O)Oc1ccccc1C(=O)O [2-acetoxybenzoic acid],135.4 ± 1.1 °C
2,O=C(O)c1ccccc1O [2-hydroxybenzoic acid],159 ± 1 °C
3,O=C(O)c1ccccc1 [benzoic acid],122 ± 1 °C
4,c1ccc2c(c1)-c1cccc3cccc-2c13 [fluoranthene],108.4 ± 3 °C
